Measurements reported in patent US8304419B2, “Chemical compounds” (priority 2007, dated 2012).
Counter-ions that a name gives are not always drawn.

The compounds below were run on HIV wild type (WTRVA) (assay: HeLa cell assay, wild type virus (WTRVA)). Conditions: Human immunodeficiency virus 1, HeLa, HeLa cell assay; read-out: IC50 against WTRVA.
Assay type: cell-based, HIV-1
Set-up: scale not given here

Row | Structure (SMILES) | IC50 [nM]
1 | Cc1cc(C#N)cc(Oc2c(Cl)ccc(CNC(=O)c3[nH]c(C)nc3Cl)c2F)n1 [Example 271, 4-Chloro-N-({4-chloro-3-[(4-cyano-6-methyl-2-pyridinyl)oxy]-2-fluorophenyl}methyl)-2-methyl-1H-imidazole-5-carboxamide] | < 10
2 | CCc1cc(C#N)cc(Oc2c(Cl)ccc(CNC(=O)c3[nH]c(C)nc3Br)c2F)c1 [Example 149, 4-bromo-N-({4-chloro-3-[(3-cyano-5-ethylphenyl)oxy]-2-fluorophenyl}methyl)-2-methyl-1H-imidazole-5-carboxamide] | < 10
3 | CCc1cc(C#N)cc(Oc2c(Cl)ccc(CNC(=O)c3[nH]cnc3Cl)c2F)c1 [Example 148, 4-chloro-N-({4-chloro-3-[(3-cyano-5-ethylphenyl)oxy]-2-fluorophenyl}methyl)-1H-imidazole-5-carboxamide] | < 10
4 | C=CCc1cc(C#N)cc(Oc2c(Cl)ccc(Cn3cnc4nc[nH]c4c3=O)c2F)c1 [Example 373, 3-({6-chloro-2-fluoro-3-[(6-oxo-6,7-dihydro-1H-purin-1-yl)methyl]phenyl}oxy)-5-(2-propen-1-yl)benzonitrile] | < 10
5 | N#Cc1cc(Br)cc(Oc2c(Cl)ccc(CNC(=O)c3[nH]cnc3Cl)c2F)c1 [Example 150, N-({3-[(3-bromo-5-cyanophenyl)oxy]-4-chloro-2-fluorophenyl}methyl)-4-chloro-1H-imidazole-5-carboxamide] | < 10
6 | Cc1nc(Cl)c(C(=O)NCc2ccc(Br)c(Oc3cc(Cl)cc(C#N)c3)c2F)[nH]1 [Example 231, N-({4-bromo-3-[(3-chloro-5-cyanophenyl)oxy]-2-fluorophenyl}methyl)-4-chloro-2-methyl-1H-imidazole-5-carboxamide trifluoroacetate] | < 10
7 | CC(C)c1cc(C#N)cc(Oc2c(Cl)ccc(CNC(=O)c3[nH]cnc3Cl)c2F)c1 [Example 159, 4-chloro-N-[(4-chloro-3-{[3-cyano-5-(1-methylethyl)phenyl]oxy}-2-fluorophenyl)methyl]-1H-imidazole-5-carboxamide] | < 10
8 | N#Cc1cc(Cl)cc(Oc2c(C(F)F)ccc(CNC(=O)c3[nH]c(N)nc3Cl)c2F)c1 [Example 253, 2-amino-4-chloro-N-{[3-[(3-chloro-5-cyanophenyl)oxy]-4-(difluoromethyl)-2-fluorophenyl]methyl}-1H-imidazole-5-carboxamide] | < 10
9 | C=Cc1cc(C#N)cc(Oc2c(Cl)ccc(CNC(=O)c3[nH]c(C)nc3Cl)c2F)n1 [Example 272, 4-Chloro-N-({4-chloro-3-[(4-cyano-6-ethenyl-2-pyridinyl)oxy]-2-fluorophenyl}methyl)-2-methyl-1H-imidazole-5-carboxamide] | < 10
10 | Cc1nc(Cl)c(C(=O)NCc2ccc(Cl)c(Oc3cc(Cl)cc(C#N)c3Cl)c2F)[nH]1 [Example 306, 4-chloro-N-({4-chloro-3-[(2,5-dichloro-3-cyanophenyl)oxy]-2-fluorophenyl}methyl)-2-methyl-1H-imidazole-5-carboxamide trifluoroacetate] | < 10

Same assay, conditions: Human immunodeficiency virus 1, HeLa, HeLa-CD4-LTR-β-gal cells, wild type virus; read-out: WTRVA activity level

Row | Structure (SMILES) | IC50 [nM]
11 | N#Cc1cc(Cl)cc(Oc2c(Cl)ccc(CNC(=O)c3[nH]cnc3[N+](=O)[O-])c2F)c1 [Example 68, N-({4-chloro-3-[(3-chloro-5-cyanophenyl)oxy]-2-fluorophenyl}methyl)-4-nitro-1H-imidazole-5-carboxamide trifluoroacetate] | < 10
12 | Cn1cncc1C(=O)NCc1ccc(Cl)c(Oc2cc(Cl)cc(C#N)c2)c1F [Example 67, N-({4-chloro-3-[(3-chloro-5-cyanophenyl)oxy]-2-fluorophenyl}methyl)-1-methyl-1H-imidazole-5-carboxamide trifluoroacetate] | 10 to 1000
13 | CN(Cc1ccc(Cl)c(Oc2cc(Cl)cc(C#N)c2)c1F)C(=O)c1ncc[nH]1 [Example 130, N-({4-chloro-3-[(3-chloro-5-cyanophenyl)oxy]-2-fluorophenyl}methyl)-N-methyl-1H-imidazole-2-carboxamide] | < 10
14 | Cc1nc(Br)c(C(=O)NCc2ccc(Cl)c(Oc3cc(Cl)cc(C#N)c3)c2F)[nH]1 [Example 134, 4-bromo-N-({4-chloro-3-[(3-chloro-5-cyanophenyl)oxy]-2-fluorophenyl}methyl)-2-methyl-1H-imidazole-5-carboxamide] | < 10
15 | COc1cc2cc(C(=O)NCc3ccc(Cl)c(Oc4cc(Cl)cc(C#N)c4)c3F)[nH]c2cn1 [Example 46, N-({4-chloro-3-[(3-chloro-5-cyanophenyl)oxy]-2-fluorophenyl}methyl)-5-(methyloxy)-1H-pyrrolo[2,3-c]pyridine-2-carboxamide trifluoroacetate] | < 10
16 | N#Cc1cc(Cl)cc(Oc2c(Cl)ccc(CNC(=O)c3cc4cccc(O)c4[nH]3)c2F)c1 [Example 32, N-({4-chloro-3-[(3-chloro-5-cyanophenyl)oxy]-2-fluorophenyl}methyl)-7-hydroxy-1H-indole-2-carboxamide] | 10 to 1000
17 | Cc1[nH]c(C(=O)NCc2ccc(Cl)c(Oc3cc(Cl)cc(C#N)c3)c2F)c(C)c1C#N [Example 71, N-({4-chloro-3-[(3-chloro-5-cyanophenyl)oxy]-2-fluorophenyl}methyl)-4-cyano-3,5-dimethyl-1H-pyrrole-2-carboxamide trifluoroacetate] | < 10
18 | Cc1nn(-c2ccccc2)nc1C(=O)NCc1ccc(Cl)c(Oc2cc(Cl)cc(C#N)c2)c1F [Example 96, N-({4-chloro-3-[(3-chloro-5-cyanophenyl)oxy]-2-fluorophenyl}methyl)-5-methyl-2-phenyl-2H-1,2,3-triazole-4-carboxamide trifluoroacetate] | 10 to 1000
19 | N#Cc1cc(Cl)cc(Oc2c(Cl)ccc(CNC(=O)c3ccccn3)c2F)c1 [Example 85, N-({4-chloro-3-[(3-chloro-5-cyanophenyl)oxy]-2-fluorophenyl}methyl)-2] | < 10
20 | Cc1nc(Cl)c(C(=O)NCc2ccc(Cl)c(Oc3cc(Cl)cc(C#N)c3)c2F)[nH]1 [Example 137, 4-chloro-N-({4-chloro-3-[(3-chloro-5-cyanophenyl)oxy]-2-fluorophenyl}methyl)-2-methyl-1H-imidazole-5-carboxamide] | < 10
21 | N#Cc1cc(Cl)cc(Oc2c(Cl)ccc(CNC(=O)c3cc4cc(NC(=O)c5cccnc5)ccc4[nH]3)c2F)c1 [Example 115, N-({4-chloro-3-[(3-chloro-5-cyanophenyl)oxy]-2-fluorophenyl}methyl)-5-[(3-pyridinylcarbonyl)amino]-1H-indole-2-carboxamide] | < 10
22 | CSc1ncccc1C(=O)NCc1ccc(Cl)c(Oc2cc(Cl)cc(C#N)c2)c1F [Example 86, N-({4-chloro-3-[(3-chloro-5-cyanophenyl)oxy]-2-fluorophenyl}methyl)-2-(methylthio)-3-pyridinecarboxamide trifluoroacetate] | 10 to 1000
23 | N#Cc1cc(Cl)cc(Oc2cc(CNC(=O)c3ccc(Cl)c(S(N)(=O)=O)c3)ccc2Cl)c1 [Example 5, 3-(aminosulfonyl)-4-chloro-N-({4-chloro-3-[(3-chloro-5-cyanophenyl)oxy]phenyl}methyl)benzamide trifluoroacetate] | 10 to 1000
24 | N#Cc1cc(Cl)cc(Oc2c(Cl)ccc(CNC(=O)c3[nH]c4cc(Cl)ccc4c3Cl)c2F)c1 [Example 55, 3,6-dichloro-N-({4-chloro-3-[(3-chloro-5-cyanophenyl)oxy]-2-fluorophenyl}methyl)-1H-indole-2-carboxamide trifluoroacetate] | 10 to 1000
25 | N#Cc1cc(Cl)cc(Oc2c(Cl)ccc(CNC(=O)c3cc4cc(NC(=O)CCN)ccc4[nH]3)c2F)c1 [Example 116, 5-(β-alanylamino)-N-({4-chloro-3-[(3-chloro-5-cyanophenyl)oxy]-2-fluorophenyl}methyl)-1H-indole-2-carboxamide] | < 10
26 | Cc1cc(C)c(C(=O)NCc2ccc(Cl)c(Oc3cc(Cl)cc(C#N)c3)c2F)[nH]1 [Example 62, N-({4-chloro-3-[(3-chloro-5-cyanophenyl)oxy]-2-fluorophenyl}methyl)-3,5-dimethyl-1H-pyrrole-2-carboxamide trifluoroacetate] | < 10
27 | N#Cc1cc(Cl)cc(Oc2c(Cl)ccc(CNC(=O)c3cc4cc(OCC[C@H](O)CO)ccc4[nH]3)c2F)c1 [Example 107, N-({4-chloro-3-[(3-chloro-5-cyanophenyl)oxy]-2-fluorophenyl}methyl)-5-{[(3S)-3,4-dihydroxybutyl]oxy}-1H-indole-2-carboxamide] | < 10
28 | N#Cc1cc(Cl)cc(Oc2c(Cl)ccc(CNC(=O)c3[nH]c4ccccc4c3Cl)c2F)c1 [Example 75, 3-chloro-N-({4-chloro-3-[(3-chloro-5-cyanophenyl)oxy]-2-fluorophenyl}methyl)-1H-indole-2-carboxamide trifluoroacetate] | < 10
29 | CC(=O)c1ccc2[nH]c(C(=O)NCc3ccc(Cl)c(Oc4cc(Cl)cc(C#N)c4)c3F)cc2c1 [Example 80, 5-acetyl-N-({4-chloro-3-[(3-chloro-5-cyanophenyl)oxy]-2-fluorophenyl}methyl)-1H-indole-2-carboxamide trifluoroacetate] | < 10
30 | N#Cc1cc(Cl)cc(Oc2c(Cl)ccc(CNC(=O)c3cc4cc(Cl)ccc4s3)c2F)c1 [Example 51, 5-chloro-N-({4-chloro-3-[(3-chloro-5-cyanophenyl)oxy]-2-fluorophenyl}methyl)-1-benzothiophene-2-carboxamide trifluoroacetate] | > 1000
31 | N#Cc1cc(Cl)cc(Oc2c(Cl)ccc(CNC(=O)c3cc4cc(OC[C@H]5CNCCO5)ccc4[nH]3)c2F)c1 [Example 24, N-({4-Chloro-3-[(3-chloro-5-cyanophenyl)oxy]-2-fluorophenyl}methyl)-5-{[(2R)-2-morpholinylmethyl]oxy}-indole-2-carboxamide] | < 10
32 | COc1ccc2c(C(=O)NCc3ccc(Cl)c(Oc4cc(Cl)cc(C#N)c4)c3)c[nH]c2c1 [Example 3, N-({4-chloro-3-[(3-chloro-5-cyanophenyl)oxy]phenyl}methyl)-6-(methyloxy)-1H-indole-3-carboxamide] | > 1000
